Test [1] relates to EC9706. Kind of test: (§1) Antiproliferative activity against human EC9706 cells at 75 uM for 24 hrs by MTT assay. The format is functional. On the technique in general: Tetrazolium assays rely on reduction of a dye to a coloured formazan, in cell work by metabolically active cells.
For test [2], the system named is HCT-116. Nature of the test: Antiproliferative activity against human HCT116 cells at 30 uM for 24 hrs by MTT assay. The format is functional.
Test [3] can be described thus: Cell cycle arrest in human EC9706 cells assessed as accumulation in G2/M phase at 30 uM after 18 hrs. It counts as functional, cell-based.
Test [4] can be described thus: Cell cycle arrest in human EC9706 cells assessed as accumulation in G2/M phase at 30 uM after 12 hrs. It counts as functional, cell-based.
In test [5] the test system is EC9706. Nature of the test: Induction of apoptosis in human EC9706 cells assessed as morphological changes at 100 uM after 24 hrs. The format is functional, cell-based.
The test system of test [6] is HCT-116. Kind of test: Induction of apoptosis in human HCT116 cells assessed as morphological changes at 100 uM after 24 hrs. It counts as functional, cell-based.
In test [7] the test system is EC9706. Kind of test: (§2) Antiproliferative activity against human EC9706 cells at 100 uM for 24 hrs by MTT assay. The format is functional.
In test [8] the test system is HCT-116. Kind of test: Antiproliferative activity against human HCT116 cells at 100 uM for 24 hrs by MTT assay. It counts as functional.
A short description of test [9]: as §1. The format is functional.
In test [10] the test system is HCT-116. Nature of the test: Induction of apoptosis in human HCT116 cells assessed as increase in cell debris at 30 uM after 18 hrs. The format is functional, cell-based.
The nature of test [11]: as §2. It counts as functional.
Test [12] has as its system HCT-116. Kind of test: Cell cycle arrest in human HCT116 cells assessed as accumulation in G2/M phase at 30 uM after 12 hrs. The format is functional, cell-based.

Activity calls are given as the source filed them. The rule behind the calls is not given here.

On to `N=C(N)NCCC[C@H](NC(=O)[C@H](CCCNC(=N)N)NC(=O)[C@H](CCCNC(=N)N)NC(=O)[C@H](CCC(N)=O)NC(=O)[C@H](CCCNC(=N)N)NC(=O)[C@H](CCCNC(=N)N)NC(=O)[C@H](CCCCN)NC(=O)[C@H](CCCCN)NC(=O)[C@@H](N)CCCNC(=N)N)C(=O)O`, for which the result in [1], in test [2], in test [3], in test [4], in test [5] and in test [6] was inactive. Moreover, the outcome in test [7] and in [8] was inactive.

As to H-KAQIRAMECNILGRKKRRQRRR-OH, the Activity was determined as 69% in test [9], 55% in [2], 52% in test [11] and 16% in [8]. In addition, the outcome in [3], in [4], in test [5], in test [10], in test [6] and in test [12] was Active.

As for H-KAQIRAMECNIL-OH, the result in test [1], in [2], in test [7] and in test [8] was inactive.
